Data: patent US4710578A, “Isothiuronium salts” (Peremartoni Vegyipari Vallalat, priority 1984, dated 1987)
Read-outs that look alike come from different tables or passages of the source.

Experiments:
[1] = test system: human polymorphonuclear leucocytes; test: Direct /random/ migration of human polymorphonuclear leucocytes on agarose microdrops; assay type: cell-based; details: for Effect on migration at a higher dose: 10 μg/ml; for Direct (random) migration of polymorphonuclear cells / Optimal dose for increase of migration: healthy donors
Experimental: Spontaneous (random) migration of leukocytes was measured on agarose microdrops according to the method of McCoy et al (1977) by carrying out some minor modifications (Kalmar and Gergely, 1982).
[…] agarose drops (0.2%) were placed on migration plates (Greiner, German Federal Republic). TC 199 liquid nutrient medium was added and the plates were air-tightly closed. After 24 hours the migration area were measured under a stereomicroscope. The migration area were expressed in mm^2.

[2] = test system: neutrophilic granulocytes, lymphocytes and macrophages; test: Preliminary rapid test: immunostimulant effect; assay type: in vivo, CFLP male mice; set-up: key: 0: if there is no difference in the number and activity of the said cells, no increase can be declared over the control; medium: Medium effect is observed if the increase of cell number or activity over the control amounts to 20%; The effect is strong if the increase of the cell number and activity of the immune system is more than 20% higher than the control; details: oral, one-tenth of LD50; 24 hours
[3] = test system: NK-ly-ascites lymphoma; test: NK-ly-ascites lymphoma in vivo; set-up: species or system CFLP male mice; details: for Activity against NK-ly-ascites tumor: concentration below one-tenth of the LD50 value; for Survival rate and lifetime: dose-dependant
[4] = test system: NK-yl ascites tumor; test: Combinations with known cytostatic agents in NK-ly ascites tumor; assay type: in vivo, CFLP mice; details: with cyclophosphamide, carnomustine, degranol, dibromo dulcitol or dibromo mannitol
[5] = test system: tumor cells; test: Testing of antitumor effect (overall)
[6] = in vivo, 24 h
[7] = test system: human lymphocytes; test: Immunological tests (overall; NK and K cell activity); assay type: cell-based
Experimental: Lymphocytes were separated on Ficoll-Uromiro (Boyum 1968) gradient from the venal blood of healthy donors and patients suffering from malignant lymphoma and metastatizing solid tumours, respectively. When selecting the patients belonging to the latter group, the decreased ADCC and NK activity was taken into consideration. The phagocytes were removed by treatment with iron powder and a magnet.
ADCC was determined according to the method of Perlmann and Perlmann (1970) with minor modifications (Lang et al, 1981). Chicken erythrocytes labelled with 10^5 51 Cr and coated with anti-chicken erythrocyte rabbit-serum were incubated with the lymphocytes for 4 hours at 37° C. The reaction having been stopped the activity of the supernatant of the centrifuged cells was determined in a gamma-counter. The rate of chrome-release was expressed as the cytotoxicity index (CI %). This value was calculated as described in one of our earlier publications (Lang et al., 1980)--(see Table I).
NK activity was determined by the method of Jondal and Pross (1975) by using minor modifications (Lang et al, 1981). K-562 tumor cells labelled by ^51 Cr were incubated with effector cells in a TC 199 liquid nutrient medium comprising 10% of decomplemented calf serum. The reaction having been stopped the radioactivity of the superntant of the centrifuged cells (chrome release) was counted in a gamma-counter. The killing of the tumor cells (cytotoxicity index %) was expressed as the difference of the test release and spontaneous release.
Statistical calculations were carried out by means of a mono-sample test. […] The said effect may be so strong that cytotoxic activity decreased to one-tenth of the original value may be restored to the oroginal level (Table II).

[8] = test system: neutrophylic granulocytes and limphocytes; details: mouse, in vivo, po
[9] = in vivo
[10] = test system: ticks (Ixodes ricinus); test: Anti-parasital effect in dogs infected by ticks; assay type: in vivo; details: oral 1-2 mg/kg; six-eight hours after administration
Experimental: Compounds of the Formula I were added orally to dogs infected by ticks (Ixodes ricinus) for three days. Thus N-aminoiminomethyl-S-allyl-isothiuronium hydrochloride was administered in an oral dose of 1-2 mg/kg and the killing rate of ticks was registered.

[11] = test system: heart muscle; test: Cardioprotective effect in isoprenaline necrosis; assay type: in vivo, male CFY rats; details: 1-5 mg/kg i.p. or 10-50 mg/kg p.o.; isoproterenol 5 mg/kg i.p.; two weeks
Experimental: 5 mg/kg of isoproterenol are i.p. administered to male CFY rats (weight 250-300 g). In each group 10 animals were used. One part of the animals served as control and the other were treated with a 1-5 mg/kg i.p. or 10-50 mg/kg p.o. dose of compound No. 14. After two weeks the hearts were subjected to hystological evaluation. The ratio of necrotized and intact area of heart muscle were determined.

[12] = test system: ascites lymphoma cells; test: Preliminary rapid test: antitumor effect; assay type: in vivo, CFLP male mice; details: oral, one-tenth of LD50; 24 hours
[13] = test system: P-388 mouse lymphoma cells; test: In vitro antitumor effect, P-388; assay type: cell-based; details: 400 μg/ml
[14] = test system: human bone metastasis of mammal tumors, ovary tumors and pancreas tumors; test: Human tumors, oral treatment for 6-12 months; assay type: in vivo; details: oral daily dose 30-120 mg (0.5-2 mg/kg)
[15] = test system: hemodinamical parameters and respiration function of cats

Molecule | Effect on migration at a higher dose [1] | Direct (random) migration of polymorphonuclear cells [1] | Optimal dose for increase of migration [1] [µg/mL] | Immunostimulant effect [2] | Activity against NK-ly-ascites tumor [3] | Survival rate and lifetime [3] | Antitumor effect of combination vs cytostatic agent alone [4] | Immunodepression of combination vs cytostatic agent alone [4] | Antitumor effect [5] | Immunostimulant effect [7] | Increase of normal and strongly decreased NK and K cell activity [7] | Toxic effect [8] | LD50 at 24 h ([9]; ip) [mg/kg] | LD50 at 24 h ([9]; po) [mg/kg] | also measured
N-Aminoiminomethyl-S-(1-Chloro-2-Hydroxy-Propyl)-Isothiuronium Bromide [Example 14] | less expressed | increased | 1.0 | weak | active agains Nk-ly-ascites tumor in a concentration below one-tenth of the LD50 value | increase survival rate and lifetime in a dose-dependant manner | the antitumor effect was strengthened | immunodepression decreased | outstanding antitumor effect |  |  |  |  |  | LD50 [6]: 2380 mg/kg; LD50 ([6]; po): 1240 ± 160 mg/kg
N=C(N)NC(=N)SCCO [Example 16, N-Aminoiminomethyl-S-(2-Hydroxyethyl)-Isothiuronium Chloride] |  |  |  | strong (The effect is strong if the increase of the cell number and activity of the immune system is more than 20% higher than the control) |  |  | the antitumor effect was strengthened | immunodepression decreased |  | outstanding immunostimulant effect | significant increase of normal and strongly decreased NK and K cell activity, even above the normal level | 0 | 1680 ± 210 | 3280 ± 460 | 
C=CCSC(=N)NC(=N)N [Example 12, N-Aminoiminomethyl-S-Allyl-Isothiuronium Chloride] |  |  |  |  |  |  |  |  |  |  |  |  |  |  | Killing rate of ticks [10]: all ticks were killed; Necrosis of heart muscle [11]: significant decrease of necrosis
N=C(N)NC(=N)SCc1ccccc1 [Example 18, N-Aminoiminomethyl-S-Benzyl-Thiuronium Chloride] |  |  |  | 0 |  |  |  |  |  |  |  | 0 |  | 2420 ± 260 | Antitumor effect [12]: increase
C=CCSC(=N)NC(=N)N [Example 11, N-Aminoiminomethyl-S-Allyl-Isothiuronium Bromide] | less expressed | increased | 1.0 | strong (The effect is strong if the increase of the cell number and activity of the immune system is more than 20% higher than the control) | active agains Nk-ly-ascites tumor in a concentration below one-tenth of the LD50 value | increase survival rate and lifetime in a dose-dependant manner | the antitumor effect was strengthened | immunodepression decreased | outstanding antitumor effect | outstanding immunostimulant effect | significant increase of normal and strongly decreased NK and K cell activity, even above the normal level | 0 | 320 ± 30 | 2380 ± 320 | Activity on P-388 cells on increasing the concentration [13]: the activity does not become stronger; Cytotoxical dose range ([3]; mouse, in vivo): 250 to 500 mg/kg; Clinical outcome in human tumors [14]: significant improvement or reconvalescence; Hemodinamical parameters and respiration function ([15]; 10 mg/kg i.v., opened and closed chest): does not considerably effect the hemodinamical parameters and respiration function; Left ventricular pressure and frequency effects ([15]; 50 mg/kg i.v.): significant and long-lasting; Hemodynamical changes ([15]; 100 mg/kg i.v.): strong hemodynamical changes were observed; Left ventricular pressure and frequency ([15]; above 10 mg/kg i.v.): decreased; Lethality ([15]; in vivo): the cats did not perish
